Earlier results, collected in patent publication EP1543827A1, “EMULSION OF PERFLUORORGANIC COMPOUNDS EXHIBITING GAS-TRANSPORT PROPERTIES, A SURFACE-ACTIVE AGENT FOR SAID EMULSION AND METHOD FOR THE PRODUCTION THEREOF” (Obshestvo C Ogranichennoi Otvetstvennostiu Accent, priority 2002, dated 2004).

Conditions: in vivo

| Compound | period of PFOC semi-clearance out of the organism |
| --- | --- |
| perfluordecalin [PFD] | 7 days |
| FC(F)(F)C1(F)C(F)(F)C(F)(F)C(F)(N2C(F)(F)C(F)(F)C(F)(F)C(F)(F)C2(F)F)C(F)(F)C1(F)F (centres unmarked) [PMCP, perfluoro-n-methylcyclohexylpiperidine] | 65 days |
